Test results reported in PubChem BioAssay AID1259407 (Chemical Carcinogenesis Research Information System (CCRIS), 2018).
Active and inactive are the calls of the source. The rule behind the calls is not given here.

Tested on: CCRIS mutagenicity, Ames/micronucleus/aberration tests
Assay: CCRIS mutagenicity studies

Measured: mutagenic call

CCC#N
inactive: End Point: IN VITRO CHROMOSOMAL ABERRATIONS, Test System: CHO-LB CELLS, Metabolic Activation: NONE inactive; negative | End Point: IN VITRO CHROMOSOMAL ABERRATIONS, Test System: CHO-LB CELLS, Metabolic Activation: RAT, LIVER, S-9, AROCLOR 1254 inactive; negative | Test System: AMES SALMONELLA TYPHIMURIUM, Strain/Indicator: TA97, Metabolic Activation: HAMSTER, LIVER, S-9, AROCLOR 1254 (10 OR 30%), Method: PREINCUBATION inactive; negative | Test System: AMES SALMONELLA TYPHIMURIUM, Strain/Indicator: TA97, Metabolic Activation: NONE, Method: PREINCUBATION inactive; negative | Test System: AMES SALMONELLA TYPHIMURIUM, Strain/Indicator: TA97, Metabolic Activation: RAT, LIVER, S-9, AROCLOR 1254 (10 OR 30%), Method: PREINCUBATION inactive; negative | Test System: AMES SALMONELLA TYPHIMURIUM, Strain/Indicator: TA98, Metabolic Activation: HAMSTER, LIVER, S-9, AROCLOR 1254 (10 OR 30%), Method: PREINCUBATION inactive; negative | Test System: AMES SALMONELLA TYPHIMURIUM, Strain/Indicator: TA98, Metabolic Activation: NONE, Method: PREINCUBATION inactive; negative | Test System: AMES SALMONELLA TYPHIMURIUM, Strain/Indicator: TA98, Metabolic Activation: RAT, LIVER, S-9, AROCLOR 1254 (10 OR 30%), Method: PREINCUBATION inactive; negative | Test System: AMES SALMONELLA TYPHIMURIUM, Strain/Indicator: TA100, Metabolic Activation: HAMSTER, LIVER, S-9, AROCLOR 1254 (10 OR 30%), Method: PREINCUBATION inactive; negative | Test System: AMES SALMONELLA TYPHIMURIUM, Strain/Indicator: TA100, Metabolic Activation: NONE, Method: PREINCUBATION inactive; negative | Test System: AMES SALMONELLA TYPHIMURIUM, Strain/Indicator: TA100, Metabolic Activation: RAT, LIVER, S-9, AROCLOR 1254 (10 OR 30%), Method: PREINCUBATION inactive; negative | Test System: AMES SALMONELLA TYPHIMURIUM, Strain/Indicator: TA1535, Metabolic Activation: HAMSTER, LIVER, S-9, AROCLOR 1254 (10 OR 30%), Method: PREINCUBATION inactive; negative | Test System: AMES SALMONELLA TYPHIMURIUM, Strain/Indicator: TA1535, Metabolic Activation: NONE, Method: PREINCUBATION inactive; negative | Test System: AMES SALMONELLA TYPHIMURIUM, Strain/Indicator: TA1535, Metabolic Activation: RAT, LIVER, S-9, AROCLOR 1254 (10 OR 30%), Method: PREINCUBATION inactive; negative
